Series [1] can be described thus: Permeability experiments in flow-through diffusion cells across rabbit corneas. Format: in vitro ADME. Particulars: for steady-state flux values: frozen/thawed rabbit cornea, 20° C. The text has this:
(§1) Harvested donor comeas, which were deemed unsuitable for transplantation because of infections such as hepatitis B and human immunodeficiency virus (HIV), were obtained from The Eye Bank Foundation of South Africa Observatory from 6 patients (mean age±SD, 35±12 years; range, 24-65 years). In addition, rabbit corneas were obtained from 6 freshly slaughtered rabbits (Country Lane Nursery Farm, Kraaifontein, Cape Town, South Africa). Excised corneas were immediately placed in McCarey-Kaufman solution and transported to a laboratory within 6 hours. The McCarey-Kaufman solution consisted of a stock solution of Medium 199 (Sigma Chemical Company, St. Louis, Mo., U.S.A.) to which sodium bicarbonate, as well as 25 mM of HEPES and 5% dextran, was added before using the solution for the transport of corneal specimens. On arrival in the laboratory, the corneas were hemisected. One half was used immediately, and the other half was snap-frozen in liquid nitrogen and stored at −85° C. for no longer than 6 months before use. At least one piece of corneal tissue from each specimen was placed in formalin and retained for histologic examination.
(§2) Before each permeability experiment, tissue specimens were thawed at room temperature in phosphate buffered saline (PBS, pH 7.4). […]
(§3) Following equilibration, the PBS was removed from the donor compartment and replaced with 1.0 mL of PBS, containing 1 mg/mL (0.1%) paracetamol in PBS at pH 7.4 (w/v) or else 1 mg/mL (0.1%) paracetamol in a commercially available artificial tear gel i.e. Teargel® liquid gel (Restan Laboratories, Bryanston, South Africa). […] Samples were analyzed at the Division of Pharmacology, Faculty of Health Sciences, Stellenbosch University by HPLC with UV detection. The collected fractions were analyzed directly after completion of the respective experiment for their paracetamol content.
(§4) Flux (J) values across membranes were calculated by means of the relationship
(§5) where Q indicates quantity of substance crossing membrane (in ng); A, membrane area exposed (in cm^2); and t, time of exposure (in minutes). […]

Series [2] in a line: Corneal penetration experiments (general statement). The series is classed as in vitro ADME. Particulars: more than 2000 corneal penetration experiments. Here is the method:
An ophthalmic solution was made up as follows: 1 mg/ml (0.1%) solution of paracetamol in phosphate buffered saline (pH=7.4) was used for half of the experiments and 1 mg/ml (0.1%) solution of paracetamol in phosphate […]. […] These tests were conducted in the following manner.

Series [3] can be described thus: Permeability experiments in flow-through diffusion cells across human corneas. Particulars: for steady-state flux values: frozen/thawed human cornea, 20° C. The series is classed as in vitro ADME.
Source text: as §1, §2, §3, §4, §5

A short description of series [4]: Initial trials: oral paracetamol in patients with glaucoma, intra-ocular pressure reduction. The series is classed as in vivo, human. Particulars: 1000 mg orally 4 to 6 hourly, after 24 to 48 hours. Here is the method: In initial trials, 1000 mg of paracetamol was administered orally 4 to 6 hourly to several patients with glaucoma. In all cases the intra-ocular pressure reduction was in the order of 30% after 24 to 48 hours. This compares well with the pressure lowering effect of currently available commercial preparations.

The mark [5] stands for this setting: 0.1% paracetamol in Teargel (TG).

In the case of `CC(=O)Nc1ccc(O)cc1` [paracetamol], the steady-state flux values was 774±30 ng·cm^−2·min^−1 in series [1] (0.1% paracetamol in PBS pH 7.4), 860±39 ng·cm^−2·min^−1 in series [1] (setting [5]), 870±76 ng·cm^−2·min^−1 in series [3] (0.1% paracetamol in PBS pH 7.4) and 860±33 ng·cm^−2·min^−1 in series [3] (setting [5]). For the same compound, in series [1] (across rabbit corneas, Teargel vs PBS, 0.1%), the “effect of Teargel on the diffusion rate of paracetamol” value is “increase the diffusion rate”. In series [2], the corneal penetration entry is reported as “does penetrate the cornea well”. Moreover, the “effect of Teargel as a soluent on the diffusion rate of paracetamol” value in series [3] (across human corneas, Teargel vs PBS, 0.1%) is on record as “did not affect the diffusion rate”. Moreover, the intra-ocular pressure reduction in series [4] is approximately 30%.

(Values after patent US20110098359A1, “Compositions and Methods for Treatment of Glaucoma” (Stellenbosch University, priority 2007, published 2011).)
